Experimental data reported in patent publication US6197575A, “Vascularized perfused microtissue/micro-organ arrays” (Massachusetts Institute of Technology, priority 1999, dated 2001).

Tests used:
P450 1A1 = experiment: EROD assay (7-ethoxyresorufin O-dealkylation) in perfused bioreactor chip of hepatocytes and endothelial cells; format: cell-based, rat
Experimental: Bioreactor constructs using an assay that measures the activity of one representative P450 isozyme, cytochrome P450 1A1, was evaluated. This enzyme is present in all mammalian species and is highly inducible by polycyclic aromatic hydrocarbons as well as other agents. 7-Ethoxyresorufin is a selective substrate of rat P450 1A1 which catalyzes its de-ethylation to the highly fluorescent resorufin. Subsequent to P450 1A1 catalyzed de-ethylation, resorufin can be exported from the cell or undergo phase II conjugation. There are two possible phase II conjugation products resulting from the enzyme catalyzed addition of sulfate or glucoronic acid to the 7-hydroxyl group of resorufin. Thus, from this assay one can quantitatively determine the activity of P450 1A1 and the phase II conjugation enzymes. […]
The 7-ethoxyresorufin O-dealkylation (EROD) assay involved dissolving the substrate into the chemically defined media (final concentration of 10-20 μM) and perfusing it through the tissue array. The effluent was collected in sequential fractions which then were analyzed by fluorescence detection for the presence of resorufin. Total conversion within each fraction was determined by incubating an aliquot from the fraction with enzymes that hydrolyze the phase II conjugates of resorufin back to the free alcohol. […]

cells = settings: tethered to silicon substrates; cited from earlier work

## Cc1ccc2cc3c(ccc4ccccc43)c3c2c1CC3 [3-methylcholanthrene]
P450 1A1; bioreactor treated for final 24 hours in static culture, attomoles resorufin formed per minute per hepatocyte
  increase in absolute level of resorufin formation: approximately five

## O=c1cc(-c2ccccc2)oc2c1ccc1ccccc12 [naphthoflavone]
P450 1A1; 20 μM inhibitor with 10 μM ethoxyresorufin, t=240-385 min
  enzyme activity (resorufin formation) in presence and after removal of inhibitor: inhibited by the inclusion of a reversible inhibitor to the media and then recovered when the inhibitor was removed

## Tethered EGF: epidermal growth factor (EGF) tethered to silicon substrates
cells
  biological activity after tethering: retained full biological activity
  stimulation of cells: stimulate cells in a dose-dependent manner
